According to US4086350A, “Pharmaceutical compositions and method of producing anti-psychotic activity without extrapyramidal symptoms” (priority 1975, dated 1978):
Where two headings read alike, the source gives them in different places.

Tests used:
[1] = system: striatal dopamine receptors; assay: Antagonism of amphetamine-induced rotation in rats with unilateral substantia nigra lesions (Ungerstedt); assay type: in vivo, rat; conditions: i.p.
Excerpt: There is evidence that antipsychotic drugs cause EPS by interfering with neurotransmission in a nigrostriatal dopaminergic pathway. It is thought that they block dopamine receptors in the neostriatum. Therefore, the ability of a drug to block striatal dopamine receptors is a measure of its EPS liability.
To assess the potency of drugs in blocking striatal dopamine receptors a procedure was used which was developed by Ungerstedt [Ungerstedt and Arbuthnott, Brain Res. 24 485 (1970); Ungerstedt, Acta physiol. scand., Suppl. 367, 49 (1971)] using rats with unilateral lesions of the substantia nigra induced by injection of 6-hydroxydopamine. This treatment causes degeneration of the nigrostriatal dopaminergic pathway accompanied by a marked decrease in the dopamine content of the neostriatum on the side of the lesion. Animals with this lesion develop postural and motor asymmetries which are altered by drugs which affect dopaminergic activity. Amphetamine, which releases dopmine and norepinephrine from catecholaminergic neurons, causes these rats to rotate unidirectionally toward the side of the lesion. Since there is a much larger amount of dopamine to be released by amphetamine from the intact nigrostriatal neurons on the non-lesioned side than from those remaining on the lesioned side, the rotational behavior is apparently due to the preponderance of activation of striatal dopamine receptors on the intact side. The ability of a drug to antagonize the rotational behavior is therefore a measure of its ability to block striatal dopamine receptors and is indicative of its potential to produce EPS.
(§1) To predict the potential ability of a drug to cause EPS, the ratio of its ED50 (i.p.) for antagonism of amphetamine-induced rotation to its ED50 (i.p.) for blockade of shock avoidance acquisition in the rat, a procedure for assessing antipsychotic activity, (R/A ratio) is calculated.

[2] = system: amphetamine-induced rotation vs. avoidance acquisition; assay: R/A ratio: ED50 amphetamine-induced rotation / ED50 avoidance acquisition; assay type: in vivo, rat
Experimental: as §1

[3] = system: shock avoidance acquisition in the rat; assay: Antagonism of shock avoidance acquisition in the rat (antipsychotic activity); assay type: in vivo; conditions: ip, read-out: Antagonism of Avoidance Acquisition, Rats, ED50 (A)
Experimental: as §1

[4] = clinically established antipsychotics (Table I)
[5] = ratio of i.p. ED50 values in rats, clinically established antipsychotics (Table I)
[6] = piperidylidene derivatives (Table II)
[7] = ratio of i.p. ED50 values in rats, piperidylidene derivatives (Table II)
[8] = rats, i.p., piperidylidene derivatives (Table II)

Compound | Antagonism of Amphetamine-induced Rotation, Rats, ED50 (R) [1, 4] [mg/kg] | R/A ratio [2, 5] | Antagonism of Amphetamine-induced Rotation, Rats, ED50 (R) [1, 6] [mg/kg] | ED50 [3] [mg/kg] | R/A ratio [2, 7] | ED50 [3, 8] [mg/kg] | R/A ratio ([2]; rat, in vivo, ip)
CN(C)CCCN1c2ccccc2Sc2ccc(Cl)cc21 [Chlorpromazine, reference compound] | 2.0 | 1.3 |  |  |  |  | 
O=C(CCCN1CCC(O)(c2ccc(Cl)cc2)CC1)c1ccc(F)cc1 [Haloperidol, reference compound] | 0.05 | 0.31 |  |  |  |  | 
CN1CCC(=C2c3ccccc3Sc3ccc(Cl)cc32)CC1 [I, 4-(2-chloro-9-thioxanthenylidene)-1-methylpiperidine] |  |  | 14.2 | 0.7 | 20.3 |  | 
CSc1ccc2c(c1)C(=C1CCN(C)CC1)c1ccccc1S2 [II, 1-methyl-4-(2-methylthio-9-thioxanthenylidene)-piperidine] |  |  | 3.7 | 0.2 | 18.5 |  | 
CN1CCC(=C2c3ccccc3Sc3cc(Cl)ccc32)CC1 [III, 4-(3-chloro-9-thioxanthenylidene)-1-methylpiperidine] |  |  | 30.8 |  | 5.8 | 5.3 | 
CN1CCC(=C2c3ccccc3Oc3ccc(Cl)cc32)CC1 [IV, 4-(2-chloro-9-xanthenylidene)-1-methylpiperidine] |  |  | 2.8 |  | 12.2 | 0.23 | 
OCCN1CCC(=C2c3ccccc3Sc3ccc(Cl)cc32)CC1 [IX, 4-(2-chloro-9-thioxanthenylidene)-1-(β-hydroxyethyl)piperidine] |  |  | 1.22 |  | 4.7 | 0.26 | 
O=c1[nH]c2ccccc2n1C1CCN(CCCC(c2ccc(F)cc2)c2ccc(F)cc2)CC1 [Pimozide, reference compound] | 0.08 | 0.30 |  |  |  |  | 
CN1CCN(CCCN2c3ccccc3Sc3ccc(C(F)(F)F)cc32)CC1 [Trifluoperazine, reference compound] |  | 0.46 |  |  |  |  | 
CSc1ccc2c(c1)C(=C1CCN(C)CC1)c1ccccc1O2 [V, 1-methyl-4-(2-methylthio-9-xanthenylidene)piperidine] |  |  | 1.8 |  | 3.0 | 0.6 | 
CN1CCC(=C2c3ccccc3Oc3ccc(C(F)(F)F)cc32)CC1 [VI, 1-methyl-4-(2-trifluoromethyl-9-xanthenylidene)-piperidine] |  |  | 0.26 |  | 3.7 | 0.07 | 
CN1CCC(=C2c3ccccc3COc3ccc(Cl)cc32)CC1 [VII, 4-(2-chloro-11(6H)-dibenz[b,e]oxepinylidene)-1-methylpiperidine] |  |  | 9.4 |  | 5.5 | 1.7 | 
CN1CCC(=C2c3ccccc3Oc3ccc(F)cc32)CC1 [VIII, 4-(2-fluoro-9-xanthenylidene)-1-methylpiperidine] |  |  | 5.6 |  | 7.9 | 0.71 | 
CN1CCC(=C2c3ccccc3Oc3ccc(Br)cc32)CC1 [X, 4-(2-bromo-9-xanthenylidene)-1-methylpiperidine] |  |  | 1.6 |  | 5.3 | 0.3 | 
CN1CCC(=C2c3ccccc3Oc3ccc(C#N)cc32)CC1 [XI, 4-(2-cyano-9-xanthenylidene)-1-methylpiperidine] |  |  | 0.29 |  | 3.2 | 0.09 | 
CN1CCC(=C2c3ccccc3Sc3ccc(F)cc32)CC1 [XII, 4-(2-fluoro-9-thioxanthenylidene)-1-methylpiperidine] |  |  | 5.5 |  | 3.1 | 1.8 | 
CN1CCC(=C2c3ccccc3Sc3cc(F)ccc32)CC1 [XIII, 4-(3-fluoro-9-thioxanthenylidene)-1-methylpiperidine] |  |  | 17.7 |  | 5.8 | 3 | 
CN1CCC(=C2c3ccccc3Sc3ccc(Br)cc32)CC1 [XIV, 4-(2-bromo-9-thioxanthenylidene)-1-methylpiperidine] |  |  | 2.7 |  | 9.0 | 0.3 | 

Compound | Antagonism of Amphetamine-induced Rotation, Rats, ED50 (R) [1, 4] [mg/kg] | R/A ratio [2, 5] | Antagonism of Amphetamine-induced Rotation, Rats, ED50 (R) [1, 6] [mg/kg] | ED50 [3] [mg/kg] | R/A ratio [2, 7] | ED50 [3, 8] [mg/kg] | R/A ratio ([2]; rat, in vivo, ip)
Clc1ccc2c(c1)C(=C1CCN(CC3CCC3)CC1)c1ccccc1S2 [XIX, 4-(2-chloro-9-thioxanthenylidene)-1-cyclobutylmethylpiperidine] |  |  | 1.9 |  |  | 0.5 | 3.8
CN1CCC(=C2c3ccc(Cl)cc3Sc3ccc(F)cc32)CC1 [XV, 4-(6-chloro-2-fluoro-9-thioxanthenylidene)-1-methylpiperidine] |  |  | 8.7 |  | 14.5 | 0.6 | 
CN1CCC(=C2c3ccc(Cl)cc3Oc3ccc(F)cc32)CC1 [XVI, 4-(6-chloro-2-fluoro-9-xanthenylidene)-1-methylpiperidine] |  |  | 1.12 |  | 7.5 | 0.15 | 
CCN1CCC(=C2c3ccccc3Sc3ccc(Cl)cc32)CC1 [XVII, 4-(2-chloro-9-thioxanthenylidene)-1-ethylpiperidine] |  |  | 5.0 |  | 10.0 | 0.5 | 
CCCCN1CCC(=C2c3ccccc3Sc3ccc(Cl)cc32)CC1 [XVIII, 4-(2-chloro-9-thioxanthenylidene)-1-n-butylpiperidine] |  |  | 3.1 |  | 3.3 | 0.94 | 
Clc1ccc2c(c1)C(=C1CCNCC1)c1ccccc1O2 [XX, 4-(2-chloro-9-xanthenylidene)-piperidine] |  |  | 8.1 |  | 4.8 | 1.7 | 
CCN1CCC(=C2c3ccccc3Oc3ccc(Cl)cc32)CC1 [XXI, 4-(2-chloro-9-xanthenylidene)-1-ethylpiperidine] |  |  | 1.8 |  | 3.6 | 0.5 | 
OCCN1CCC(=C2c3ccccc3Oc3ccc(Cl)cc32)CC1 [XXII, 4-(2-chloro-9-xanthenylidene)-1-(β-hydroxyethyl)-piperidine] |  |  | 1.3 |  | 6.5 | 0.2 | 
CCCN1CCC(=C2c3ccccc3Oc3ccc(Cl)cc32)CC1 [XXIII, 4-(2-chloro-9-xanthenylidene)-1-n-propylpiperidine] |  |  | 2.4 |  | 4.0 | 0.6 | 
Clc1ccc2c(c1)C(=C1CCN(CC3CCC3)CC1)c1ccccc1O2 [XXIV, 4-(2-chloro-9-xanthenylidene)-1-cyclobutylmethylpiperidine] |  |  | 1.6 |  | 3.2 | 0.5 | 
CN1CCC(=C2c3ccc(F)cc3Sc3ccc(F)cc32)CC1 [XXIX, 4-(2,6-difluoro-9-thioxanthenylidene)-1-methylpiperidine] |  |  | 2.4 |  | 4.8 | 0.5 | 
Brc1ccc2c(c1)C(=C1CCNCC1)c1ccccc1O2 [XXV, 4-(2-bromo-9-xanthenylidene)-piperidine] |  |  | 4.0 |  | 6.7 | 0.6 | 
OCCN1CCC(=C2c3ccccc3Oc3ccc(Br)cc32)CC1 [XXVI, 4-(2-bromo-9-xanthenylidene)-1-(β-hydroxyethyl)-piperidine] |  |  | 2.1 |  | 3.5 | 0.6 | 
CN1CCC(=C2c3cc(Cl)ccc3COc3ccccc32)CC1 [XXVII, 4-(9-chloro-11(6H)-dibenz[b,e]oxepinylidene)-1-methylpiperidine] |  |  | > 24 |  | > 15 | 1.6 | 
CN1CCC(=C2c3ccccc3Sc3ccc(C#N)cc32)CC1 [XXVIII, 4-(2-cyano-9-thioxanthenylidene)-1-methylpiperidine] |  |  | 0.67 |  | 4.0 | 0.16 | 
OCCCN1CCC(=C2c3ccccc3Oc3ccc(Cl)cc32)CC1 [XXX, 4-(2-chloro-9-xanthenylidene)-1-(3-hydroxypropyl)-piperidine] |  |  | 0.78 |  | 3.9 | 0.2 | 
CCCCN1CCC(=C2c3ccccc3Oc3ccc(C(F)(F)F)cc32)CC1 [XXXI, 4-(2-trifluoromethyl-9-xanthenylidene)-1-n-butylpiperidine] |  |  | 1 |  | 10 | 0.1 | 
